Assay results published in PubChem BioAssay AID2060613 (Molecular Pharmacology Branch, DTP, NCI, 2025).

Tested on: 233499-124-R-J3-PDC complex spheroid viability
Test: Anticancer human tumor 233499-124-R-J3-PDC patient-derived colon adenocarcinoma cell line growth inhibition [CLK]
Conditions: for IC50: curve of first compound; for viability, T/C: stronger effect = lower value; active means viability on the fitted dose curve at most 10% of control; inactive means the rest
Procedure, shortened: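 Patient-derived tumor cells grown as complex spheroids with HUVEC endothelial cells and mesenchymal stem cells, treated with drug combinations. Concentrations descend in half-log steps from near clinical Cmax, or from 10 microM if Cmax unknown.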

[1] = second compound 0.0316 µM, first compound 0.0316 µM
[2] = second compound 0.0316 µM, first compound 0.1 µM
[3] = second compound 0.0316 µM, first compound 0.316 µM
[4] = second compound 0.0316 µM, first compound 1 µM
[5] = second compound 0.0316 µM, first compound 3.16 µM
[6] = second compound 0.0316 µM, first compound 10 µM
[7] = second compound 0.1 µM, first compound 0.0316 µM
[8] = second compound 0.1 µM, first compound 0.1 µM
[9] = second compound 0.1 µM, first compound 0.316 µM
[10] = second compound 0.1 µM, first compound 1 µM
[11] = second compound 0.1 µM, first compound 3.16 µM
[12] = second compound 0.1 µM, first compound 10 µM
[13] = second compound 0.316 µM, first compound 0.0316 µM
[14] = second compound 0.316 µM, first compound 0.1 µM
[15] = second compound 0.316 µM, first compound 0.316 µM
[16] = second compound 0.316 µM, first compound 1 µM
[17] = second compound 0.316 µM, first compound 3.16 µM
[18] = second compound 0.316 µM, first compound 10 µM
[19] = second compound 1 µM, first compound 0.0316 µM
[20] = second compound 1 µM, first compound 0.1 µM
[21] = second compound 1 µM, first compound 0.316 µM
[22] = second compound 1 µM, first compound 1 µM
[23] = second compound 1 µM, first compound 3.16 µM
[24] = second compound 1 µM, first compound 10 µM
[25] = second compound 3.16 µM, first compound 0.0316 µM
[26] = second compound 3.16 µM, first compound 0.1 µM
[27] = second compound 3.16 µM, first compound 0.316 µM
[28] = second compound 3.16 µM, first compound 1 µM
[29] = second compound 3.16 µM, first compound 3.16 µM
[30] = second compound 3.16 µM, first compound 10 µM
[31] = second compound 10 µM, first compound 0.0316 µM
[32] = second compound 10 µM, first compound 0.1 µM
[33] = second compound 10 µM, first compound 0.316 µM
[34] = second compound 10 µM, first compound 1 µM
[35] = second compound 10 µM, first compound 3.16 µM
[36] = second compound 10 µM, first compound 10 µM
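Further: spheroids exposed to the drug combinations for seven days.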
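Wherever viability, T/C is given: percent viability relative to DMSO vehicle control wells taken as 100%.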

C#Cc1c(F)ccc2cc(O)cc(-c3ncc4c(N5CC6CCC(C5)N6)nc(OCC56CCCN5CC(F)C6)nc4c3F)c12 (stereo unspecified) + CNC(=O)c1ccc(Nc2nc(OC3CCCC3)c3c(-c4ccc5nc(C)oc5c4)c[nH]c3n2)c(OC)c1
inactive: viability, T/C [1] 98.8% | viability, T/C [2] 98.2% | viability, T/C [3] 86.5% | viability, T/C [4] 91% | viability, T/C [5] 75.9% | viability, T/C [6] 88.7% | viability, T/C [7] 76.5% | viability, T/C [8] 62.8% | viability, T/C [9] 72.7% | viability, T/C [10] 75.8% | viability, T/C [11] 74.3% | viability, T/C [12] 57.7% | viability, T/C [13] 90.3% | viability, T/C [14] 74.9% | viability, T/C [15] 85.3% | viability, T/C [16] 68.3% | viability, T/C [17] 74.8% | viability, T/C [18] 55% | viability, T/C [19] 78.3% | viability, T/C [20] 78.9% | viability, T/C [21] 68.4% | viability, T/C [22] 56.8% | viability, T/C [23] 81.4% | viability, T/C [24] 55.2% | viability, T/C [25] 54.4% | viability, T/C [26] 73.1% | viability, T/C [27] 52.8% | viability, T/C [28] 70.8% | viability, T/C [29] 68.3% | viability, T/C [30] 53% | viability, T/C [31] 75.5% | viability, T/C [32] 77.7% | viability, T/C [33] 68.8% | viability, T/C [34] 68.4% | viability, T/C [35] 60.9% | viability, T/C [36] 40.6%
5.76 µM: IC50 (second compound 10 µM)
> 10 µM: IC50 (second compound 0.0316 µM) | IC50 (second compound 0.1 µM) | IC50 (second compound 0.316 µM) | IC50 (second compound 1 µM) | IC50 (second compound 3.16 µM)

C=C(F)C(=O)N1CCN(c2nc(OCC3CCCN3C)nc3c2CCN(c2cccc4cccc(Cl)c24)C3)CC1CC#N (stereo unspecified) + CNC(=O)c1ccc(Nc2nc(OC3CCCC3)c3c(-c4ccc5nc(C)oc5c4)c[nH]c3n2)c(OC)c1
5.2 µM: IC50 (second compound 10 µM)
inactive: viability, T/C [1] 92.1% | viability, T/C [2] 84.5% | viability, T/C [3] 99% | viability, T/C [4] 89.6% | viability, T/C [5] 93.5% | viability, T/C [6] 44.5% | viability, T/C [7] 65.9% | viability, T/C [8] 73.2% | viability, T/C [9] 81.3% | viability, T/C [10] 70.2% | viability, T/C [11] 61.4% | viability, T/C [12] 28% | viability, T/C [13] 76.7% | viability, T/C [14] 64.9% | viability, T/C [15] 69.7% | viability, T/C [16] 72.8% | viability, T/C [17] 79.2% | viability, T/C [18] 26.7% | viability, T/C [19] 71.4% | viability, T/C [20] 82.5% | viability, T/C [21] 78.4% | viability, T/C [22] 64% | viability, T/C [23] 71.2% | viability, T/C [24] 30% | viability, T/C [25] 76.8% | viability, T/C [26] 77.3% | viability, T/C [27] 75.8% | viability, T/C [28] 73.1% | viability, T/C [29] 75.7% | viability, T/C [30] 22.9% | viability, T/C [31] 75.5% | viability, T/C [32] 66.3% | viability, T/C [33] 73.8% | viability, T/C [34] 66.5% | viability, T/C [35] 74.3% | viability, T/C [36] 22%
5.53 µM: IC50 (second compound 3.16 µM)
5.57 µM: IC50 (second compound 0.316 µM)
4.72 µM: IC50 (second compound 0.1 µM)
8.76 µM: IC50 (second compound 0.0316 µM)
5.66 µM: IC50 (second compound 1 µM)

CC(CO)NC(=O)c1cc(-c2ccc(Cl)cc2)nn(-c2cnn(C)c2)c1=O (stereo unspecified) + CNC(=O)c1ccc(Nc2nc(OC3CCCC3)c3c(-c4ccc5nc(C)oc5c4)c[nH]c3n2)c(OC)c1
inactive: viability, T/C [1] 94.6% | viability, T/C [2] 98.2% | viability, T/C [3] 90.1% | viability, T/C [4] 94.6% | viability, T/C [5] 94% | viability, T/C [6] 88.9% | viability, T/C [7] 83.5% | viability, T/C [8] 84.7% | viability, T/C [9] 71.9% | viability, T/C [10] 80.6% | viability, T/C [11] 87.8% | viability, T/C [12] 61.9% | viability, T/C [13] 91.4% | viability, T/C [14] 64.6% | viability, T/C [15] 88.5% | viability, T/C [16] 83.9% | viability, T/C [17] 83.5% | viability, T/C [18] 66.6% | viability, T/C [19] 84.3% | viability, T/C [20] 85% | viability, T/C [21] 86.5% | viability, T/C [22] 86.7% | viability, T/C [23] 81.9% | viability, T/C [24] 79.2% | viability, T/C [25] 84.6% | viability, T/C [26] 59.3% | viability, T/C [27] 62.4% | viability, T/C [28] 83.3% | viability, T/C [29] 83.7% | viability, T/C [30] 70.8% | viability, T/C [31] 68.6% | viability, T/C [32] 73.9% | viability, T/C [33] 69.8% | viability, T/C [34] 72.2% | viability, T/C [35] 69.7% | viability, T/C [36] 64.2%
> 10 µM: IC50 (second compound 0.0316 µM) | IC50 (second compound 0.1 µM) | IC50 (second compound 0.316 µM) | IC50 (second compound 1 µM) | IC50 (second compound 3.16 µM) | IC50 (second compound 10 µM)
